Experimental data reported in publication PMC9227077, “Prediction Models for Brain Distribution of Drugs Based on Biomimetic Chromatographic Data” (Molecules, 2022).
Where two headings read alike, the source gives them in different places.

Experiments:
[1] = rat brain tissue; cited from earlier work
[2] = cited from earlier work
[3] = set-up: method as in ref 23, 24, 27, 29, 45 (a number printed in a supplementary file, which may have a reference list of its own: not looked up in the article's list); details: 100% aqueous mobile phase, previously obtained in authors' laboratory, cited from earlier work
α1 acid glycoprotein = tested on: α1 acid glycoprotein; set-up: method as in ref 23, 24, 27, 29, 45 (a number printed in a supplementary file, which may have a reference list of its own: not looked up in the article's list); details: pH=7.4, 100% aqueous mobile phase; previously obtained in authors' laboratory; cited from earlier work
human serum albumin = tested on: human serum albumin; set-up: method as in ref 45 (a number printed in a supplementary file, which may have a reference list of its own: not looked up in the article's list); details: cited from earlier work
[4] = Unbound fraction in brain (fu,brain), brain homogenate method; details: Kb from literature fu,brain
Excerpt: However, Kp,uu,brain can be derived from Kp,brain by combining the unbound fraction of the drug in the plasma (fu,p) and in the brain (fu,brain) or the unbound brain volume of distribution, Vu,brain [7]. […] The relevant equations are included in Section 3. Evidently, fu,p is obtained by standard methods for plasma protein binding.
Experimentally determined Kp,brain values for 42 compounds were obtained from the literature and were converted to logBB. They preferably referred to rat studies in order to achieve homogeneity in the data. Experimental fu,brain values were available from the literature for 39 compounds in the dataset. When more than one value was available, the average was calculated. Most values were determined on rats.
The decimal logarithm of Kb, logKb, was used for the development of the models.

[5] = brain slice method; cited from earlier work
[6] = cited from earlier work; remark: listed apart in the source
[7] = most values in rats, average if more than one value; cited from earlier work
[8] = literature Kp,brain converted to logBB
[9] = total brain/total plasma, preferably rat studies
[10] = pH=7.4, isocratic, 10% acetonitrile, available for 37 compounds, remaining calculated by equation
[11] = pH=5.0, octanol-water, experimental
[12] = pH=7.4, octanol-water, experimental
[13] = octanol-water partition coefficient, experimental

CC(=O)Nc1ccc(O)cc1 [Acetaminophen]
Kp,uu,brain [1]: 0.18
logBB exper. [2, 8]: -0.31
Kp,brain [2, 9]: 0.49
logkw IAM ([3]; pH=5.0, PBS): -0.06
logkw IAM ([3]; pH=7.4, PBS): 0.18
logkwAGP (α1 acid glycoprotein): 0.10
logk10,HSA (human serum albumin; [10]): -0.56
logKb exper. [4]: 0.692

CN(C)CCC=C1c2ccccc2CCc2ccccc21 [Amitriptyline]
Vu,brain [5]: 310.00 mL/g brain
logBB exper. [2, 8]: 0.98
Kp,brain [2, 9]: 9.55
logD [6, 11]: 1.13
logD [6, 12]: 2.50
logkw IAM ([3]; pH=5.0, PBS): 2.06
logkw IAM ([3]; pH=7.4, PBS): 2.99
logkwAGP (α1 acid glycoprotein): 2.40
logk10,HSA (human serum albumin; [10]): 0.89
fu,brain [7]: 0.010

Cc1cc(=O)n(-c2ccccc2)n1C [Antipyrine]
Kp,uu,brain [1]: 0.71
Kp,brain [2, 9]: 0.80
logkw IAM ([3]; pH=7.4, PBS): 0.45
logkwAGP (α1 acid glycoprotein): 0.88
logk10,HSA (human serum albumin): -1.04
fu,brain [7]: 0.862

Cn1c(=O)c2c(ncn2C)n(C)c1=O [Caffeine]
Kp,uu,brain [1]: 0.77
logkw IAM ([3]; pH=7.4, PBS): 0.26

COC(=O)[C@H]1[C@@H](OC(=O)c2ccccc2)C[C@@H]2CC[C@H]1N2C [Cocaine]
Kp,uu,brain [1]: 0.37
Kp,brain ([2]; rat, in vivo): 3.98
logBB exper. ([2]; rat, in vivo): 0.6
logP [6, 13]: 3.01
logD [6, 11]: -0.96
logD [6, 12]: 1.07
logkw IAM ([3]; pH=7.4, PBS): 1.90
logk10,HSA (human serum albumin; [10]): 0.33

CC(C)Cc1ccc(C(C)C(=O)O)cc1 (stereo not shown) [Ibuprofen]
Kp,uu,brain [1]: 0.56
logD [6, 11]: 2.15
logkw IAM ([3]; pH=5.0, PBS): 1.55
logkw IAM ([3]; pH=7.4, PBS): 0.87

COc1ccc2c(c1)c(CC(=O)O)c(C)n2C(=O)c1ccc(Cl)cc1 [Indomethacin]
Vu,brain [5]: 14.00 mL/g brain
logBB exper. [2, 8]: -1.26
Kp,brain [2, 9]: 0.05
logD [6, 11]: 2.95
logkw IAM ([3]; pH=5.0, PBS): 2.93
logkw IAM ([3]; pH=7.4, PBS): 2.41
logkwAGP (α1 acid glycoprotein): 1.59
logk10,HSA (human serum albumin): 1.76
fu,brain [7]: 0.042

CCCC(C)(COC(N)=O)COC(N)=O [Meprobamate]
logP [6, 13]: 0.70
logD [6, 11]: 1.07
logD [6, 12]: 0.70
logkw IAM ([3]; pH=5.0, PBS): 0.54
logkw IAM ([3]; pH=7.4, PBS): 0.72
logk10,HSA (human serum albumin; [10]): -0.36
fu,brain [7]: 0.638
logKb exper. [4]: 0.245

CN(C)C(=N)N=C(N)N [Metformin]
Vu,brain [5]: 10.00 mL/g brain
logkw IAM ([3]; pH=7.4, PBS): -0.37
logKb exper. [4]: 1.270

Cc1ncc2n1-c1ccc(Cl)cc1C(c1ccccc1F)=NC2 [Midazolam]
Vu,brain [5]: 29.00 mL/g brain
Kp,uu,brain [1]: 2.19
logBB exper. [2, 8]: 0.36
Kp,brain [2, 9]: 2.29
logD [6, 11]: 1.95
logD [6, 12]: 3.27
logkw IAM ([3]; pH=5.0, PBS): 1.93
logkw IAM ([3]; pH=7.4, PBS): 2.77
logk10,HSA (human serum albumin; [10]): 0.99
fu,brain [7]: 0.026

CC1COc2c(N3CCN(C)CC3)c(F)cc3c(=O)c(C(=O)O)cn1c23 (stereo not shown) [Ofloxacin]
Kp,uu,brain [1]: 0.12
logD [6, 11]: -1.31
logkw IAM ([3]; pH=5.0, PBS): 1.35
logkw IAM ([3]; pH=7.4, PBS): 1.30
logk10,HSA (human serum albumin): -0.65

C=CCOc1ccccc1OCC(O)CNC(C)C (stereo not shown) [Oxprenolol]
Vu,brain [5]: 11.80 mL/g brain
logBB exper. [2, 8]: 0.025
Kp,brain [2, 9]: 1.06
logD [6, 11]: -0.61
logD [6, 12]: 0.32
logkw IAM ([3]; pH=5.0, PBS): 0.87
logkw IAM ([3]; pH=7.4, PBS): 1.47
logk10,HSA (human serum albumin; [10]): -0.25
fu,brain [7]: 0.280

OCCN1CCN(CCCN2c3ccccc3Sc3ccc(Cl)cc32)CC1 [Perphenazine]
logP [6, 13]: 4.20
logD [6, 11]: 1.61
logD [6, 12]: 3.65
logkw IAM ([3]; pH=7.4, PBS): 3.67
logkwAGP (α1 acid glycoprotein): 3.19
logk10,HSA (human serum albumin; [10]): 1.24
fu,brain [7]: 0.004

O=C1NC(=O)C(c2ccccc2)(c2ccccc2)N1 [Phenytoin]
Kp,uu,brain [1]: 0.45
logBB exper. [2, 8]: -0.04
Kp,brain [2, 9]: 0.91
logP [6, 13]: 2.24
logD [6, 11]: 1.95
logD [6, 12]: 2.17
logkw IAM ([3]; pH=5.0, PBS): 1.94
logkw IAM ([3]; pH=7.4, PBS): 1.75
logkwAGP (α1 acid glycoprotein): 1.60
logk10,HSA (human serum albumin; [10]): 0.44
fu,brain [7]: 0.121

CC(C)NCC(O)COc1cccc2ccccc12 (stereo not shown) [Propranolol]
Vu,brain [5]: 112.00 mL/g brain
logBB exper. [2, 8]: 0.64
Kp,brain [2, 9]: 4.37
logkw IAM ([3]; pH=5.0, PBS): 1.63
logkw IAM ([3]; pH=7.4, PBS): 2.33
logkwAGP (α1 acid glycoprotein): 2.20
logk10,HSA (human serum albumin; [10]): 0.48
fu,brain [7]: 0.025

C=C[C@H]1C[N@@]2CC[C@H]1C[C@@H]2[C@@H](O)c1ccnc2ccc(OC)cc12 [Quinidine]
Kp,uu,brain [1]: 0.03
logkw IAM ([3]; pH=7.4, PBS): 2.34
logkwAGP (α1 acid glycoprotein): 1.71
logk10,HSA (human serum albumin): 0.29

CNC(=C[N+](=O)[O-])NCCSCc1ccc(CN(C)C)o1 [Ranitidine]
logBB exper. [2, 8]: -1.23
Kp,brain [2, 9]: 0.06
logP [6]: 1.28
logD [6, 11]: -3.37
logD [6, 12]: -0.53
logkw IAM ([3]; pH=7.4, PBS): 0.61
logk10,HSA (human serum albumin; [10]): -0.41
logKb exper. [4]: 1.317

Cc1nc2n(c(=O)c1CCN1CCC(c3noc4cc(F)ccc34)CC1)CCCC2 [Risperidone]
Kp,uu,brain [1]: 0.08
logkw IAM ([3]; pH=7.4, PBS): 2.49
logk10,HSA (human serum albumin; [10]): 0.13

O=C(O)c1ccccc1O [Salicylic acid]
Vu,brain [5]: 1.00 mL/g brain
logkw IAM ([3]; pH=5.0, PBS): 0.46
logkw IAM ([3]; pH=7.4, PBS): -0.08
fu,brain [7]: 0.630
logKb exper. [4]: 0.230

CSc1ccc2c(c1)N(CCC1CCCCN1C)c1ccccc1S2 (stereo not shown) [Thioridazine]
Vu,brain [5]: 3333.00 mL/g brain
logBB exper. [2, 8]: 0.24
Kp,brain [2, 9]: 1.74
logP [6, 13]: 5.90
logD [6, 11]: 3.06
logD [6, 12]: 3.34
logk10,HSA (human serum albumin; [10]): 1.59
fu,brain [7]: 0.001
